Data reported in patent US8278268B2, “Combination therapy comprising glucose reabsorption inhibitors and PPAR modulators” (Ortho-McNeil Pharmaceutical, Inc., priority 2001, dated 2012).
One block for each molecule: values may come before it.

Key:
Assay type in all cases: in vivo
db/db mice [1] = assay: Example 4: plasma glucose AUC following an oral glucose challenge
Protocol: (§1) To examine the effect of T-1095 in combination with a PPARγ agonist, male db/db mice (6 weeks of age/Jackson Labs, […]), a PPARγ agonist such as MCC-555 (3 mg/kg-30 mg/kg), T-1095 (3-100 mg/kg), or MCC-555 plus T-1095. Mice (n=8 animals/group) received the test compounds or vehicle by oral gavage in a volume of 10 ml/kg of body weight. Body weight was recorded on day 1, prior to dosing, and twice a week for the duration of the study. One hour after the final dose, mice were weighed and anesthetized with CO2/O2 (70:30). Mice were then bled by retro-orbital sinus puncture into 2 mL heparinized polypropylene tubes on ice. Mice were then fasted overnight and bled by tail-clip prior to receiving a glucose challenge (2 g/kg p.o). Blood was collected at 30, 60.120, and 180 minutes after the challenge. Animals were then sacrificed and epididymal fat pads, livers, and hearts were excised, weighed and frozen for histological examination. Plasma samples were then assayed for glucose, HbA1c, insulin, and triglycerides.

db/db mice [2] = assay: Example 4: 32 day oral dosing of T-1095 +/− MCC-555 in db/db mice; conditions: for % HbA1C +/− SEM / Body Weight Change (g) ± SEM / Glucose / Insulin / Liver Weight (g) ± SEM / TG / Heart Weight (g) ± SEM: 32 day oral dosing
Protocol: as §1
Livers and hearts were excised, weighed and frozen.

female db/db mice [3] = assay: Example 1: 11 day oral dosing of rosiglitazone +/− T-1095 in db/db mice; conditions: for Glucose / Insulin / TG: mean; for Body Weight Change / Liver Weight: −T1095, mean
Protocol: (§2) Mice (n=8 animals/group) received the test compounds or vehicle by oral gavage in a volume of 10 ml/kg of body weight. Body weight was recorded on day 1, prior to dosing, and days 4, 8 and 11. Eighteen hours after the final dose, mice were weighed and anesthetized with CO2/O2 (70:30). Mice were then bled by retro-orbital sinus puncture into 2 mL heparinized polypropylene tubes on ice.
Plasma samples were then assayed for glucose, insulin, and triglycerides using Trinder reagent (Sigma Diagnostics), Elisa (Alpco) and GPO-Trinder (Sigma Diagnostics), respectively.
(§3) Livers were excised, weighed and frozen. […] Heart weight can be measured in an analogous manner.

female db/db mice [4] = assay: Example 2: 11 day oral dosing of T-1095 +/− rosiglitazone in db/db mice; conditions: Rosi 10 mpk, mean
Protocol: as §2, with “ice. Plasma samples were then assayed for glucose, insulin, and triglycerides using Trinder reagent (Sigma Diagnostics), Elisa (Alpco) and GPO-Trinder (Sigma Diagnostics), respectively. Livers and hearts were excised, weighed and frozen.” for “ice.”
as §3

- Liver Weight (g) ± SEM (db/db mice [2]; 3 mpk MCC-555): 2.36 ± 0.22 g
- Heart Weight (g) ± SEM (db/db mice [2]; 10 mpk MCC-555): 0.13 ± 0.01 g
- Liver Weight (g) ± SEM (db/db mice [2]; 10 mpk MCC-555): 1.91 ± 0.17 g
- Heart Weight (g) ± SEM (db/db mice [2]; 30 mpk MCC-555): 0.12 ± 0.01 g
- Liver Weight (g) ± SEM (db/db mice [2]; 30 mpk MCC-555): 1.68 ± 0.1 g
SMILES: O=C1NC(=O)C(Cc2ccc3cc(OCc4ccccc4F)ccc3c2)S1 (centres unmarked) [MCC-555, 5-((6-((2-fluorophenyl)methoxy)-2-naphthalenyl)methyl)-2,4-thiazolidinedione, reference compound]
- AUC glucose % of Vehicle ± SEM (db/db mice [1]; 3 mpk MCC-555, 32 day oral dosing): 74.11 ± 7.38 % of Vehicle
- AUC glucose % of Vehicle ± SEM (db/db mice [1]; 10 mpk MCC-555, 32 day oral dosing): 71.05 ± 8.37 % of Vehicle
- AUC glucose % of Vehicle ± SEM (db/db mice [1]; 30 mpk MCC-555, 32 day oral dosing): 48.03 ± 4.37 % of Vehicle
- % HbA1C +/− SEM (db/db mice [2]; 3 mpk MCC-555): 4.50 ± 0.17 %
- Body Weight Change (g) ± SEM (db/db mice [2]; 3 mpk MCC-555): 9.14 ± 1.5 g
- Glucose (db/db mice [2]; 3 mpk MCC-555): 201.3 ± 24 mg/dL
- Insulin (db/db mice [2]; 3 mpk MCC-555): 31.7 ± 4.7 ng/dL
- TG (db/db mice [2]; 3 mpk MCC-555): 90.20 ± 4.5 mg/dL
- % HbA1C +/− SEM (db/db mice [2]; 10 mpk MCC-555): 4.10 ± 0.15 %
- Body Weight Change (g) ± SEM (db/db mice [2]; 10 mpk MCC-555): 9.53 ± 0.9 g
- Glucose (db/db mice [2]; 10 mpk MCC-555): 155.1 ± 22 mg/dL
- Insulin (db/db mice [2]; 10 mpk MCC-555): 11.9 ± 1.4 ng/dL
- TG (db/db mice [2]; 10 mpk MCC-555): 73.90 ± 5.4 mg/dL
- % HbA1C +/− SEM (db/db mice [2]; 30 mpk MCC-555): 4.11 ± 0.14 %
- Body Weight Change (g) ± SEM (db/db mice [2]; 30 mpk MCC-555): 8.0 ± 0.7 g
- Glucose (db/db mice [2]; 30 mpk MCC-555): 111.5 ± 8.0 mg/dL
- Insulin (db/db mice [2]; 30 mpk MCC-555): 5.40 ± 0.4 ng/dL
- TG (db/db mice [2]; 30 mpk MCC-555): 55.30 ± 4.7 mg/dL
- change in heart weight (db/db mice [2]; MCC-555 alone, in this study): did not produce a significant change in heart weight

- Liver Weight (female db/db mice [3]; Rosi 0.1 mpk): 2.31 g
- Liver Weight (female db/db mice [3]; Rosi 1 mpk): 2.32 g
- Liver Weight (female db/db mice [3]; Rosi 10 mpk): 2.36 g
- Liver Weight (female db/db mice [4]): 2.15 g
SMILES: CN(CCOc1ccc(CC2SC(=O)NC2=O)cc1)c1ccccn1 (centres unmarked) [Rosi, 5-((4-(2-(methyl-2-pyridinylamino)ethoxy)phenyl)methyl)-2,4-thiazolidinedione]
- Glucose (female db/db mice [3]; 0.1 mpk Rosi): ***388.13 mg/dL
- Insulin (female db/db mice [3]; 0.1 mpk Rosi): 65.75 ng/mL
- TG (female db/db mice [3]; 0.1 mpk Rosi): ***188.38 mg/dL
- Glucose (female db/db mice [3]; 1 mpk Rosi): ***246.71 mg/dL
- Insulin (female db/db mice [3]; 1 mpk Rosi): ***25.43 ng/ml
- TG (female db/db mice [3]; 1 mpk Rosi): ***199.43 mg/dL
- Glucose (female db/db mice [3]; 10 mpk Rosi): ***321.63 mg/dL
- Insulin (female db/db mice [3]; 10 mpk Rosi): ***31.63 ng/ml
- TG (female db/db mice [3]; 10 mpk Rosi): ***136.25 mg/dL
- Body Weight Change (female db/db mice [3]; Rosi 0.1 mpk): 4.34 g
- Body Weight Change (female db/db mice [3]; Rosi 1 mpk): 2.60 g
- Body Weight Change (female db/db mice [3]; Rosi 10 mpk): 4.76 g
- Body Weight Change (female db/db mice [4]): 3.9 g
- Glucose (female db/db mice [4]): **244 mg/dL
- Insulin (female db/db mice [4]): *7.4 ng/ml
- TG (female db/db mice [4]): *192 mg/dL
